Data reported in patent US20250121000A1, “INHALABLE BICARBONATE COMPOSITIONS AND DELIVERY SYSTEMS THEREFOR” (Nebulize Performance Inc., priority 2023, published 2025).
Where two headings read alike, the source gives them in different places.

What was measured:
[1] = for gastrointestinal discomfort or side effects / self-reported breathing difficulties (chest tightness, shortness of breath, respiratory difficulty) and nausea: inhaled nebulized 3.5% sodium bicarbonate; for self-reported breathing difficulties (chest tightness, shortness of breath, respiratory difficulty) and nausea: all participants
Experimental: A randomized, single-blinded, crossover design was used. Participants completed a repeated sprint exercise protocol to total exhaustion in an indoor facility after inhaling 20 mL of a 3.5% sodium bicarbonate solution (700 mg) dissolved in water or a placebo (pure water) prior to the sprint test. Participants inhaled the solutions through a commercially available nebulizer (Pari Vios Nebulizer System™) for 30 min while seated at rest over 5 bouts of 6 min (4 mL/bout) prior to completing the first sprint set and were required to breathe the same solution for 60 seconds in between each set (described below).
The order of placebo or bicarbonate was assigned with a numbering system of 1 and 2 respectively, where half of the participants were randomly assigned a 1-2 vs 2-1 order with each trial separated by one week. Following the last trial, participants were asked to guess the order of trials. […] Participants were also asked to describe any noticeably breathing difficulties including chest tightness, shortness of breath or any sign of respiratory difficulty, as well as nausea.

[2] = upwards of / over 20 grams, literature studies, cited from earlier work
[3] = inhaled 3.5% sodium bicarbonate, sets 1-4, p<0.05
[4] = participants that completed more than 4 sprint sets, non-significant trend

O=C([O-])O.[Na+] [sodium bicarbonate]
average improvement in sprint time vs placebo, first half of each set (shuttle sprints 1-3) [1, 3]: 3.5%
improvement in average sprint time vs placebo, sprints 4-6 of each set [1, 3]: 4.5%
decrease in average sprint time vs placebo, overall (sprints 1-6 of each set) ([1]; inhaled 20 mL of 3.5% sodium bicarbonate solution (700 mg) by nebulizer plus 60 s between sets, 4 sets of 6x40 m sprints, p<0.05): 4.1%
gastrointestinal discomfort or side effects [1]: no participants experienced any symptoms of gastrointestinal discomfort or side effects
self-reported breathing difficulties (chest tightness, shortness of breath, respiratory difficulty) and nausea [1]: free of any such distress
self-reported breathing difficulties (chest tightness, shortness of breath, respiratory difficulty) and nausea ([1]; listed as nebulized bicarbonate): free of respiratory distress
gastrointestinal discomfort or side effects ([1]; listed as Nebulized bicarbonate): without detrimental side effects
improvement in performance (faster time) in sprint set 5 [1, 4]: 5%
improvement in performance (faster time) in sprint set 6 [1, 4]: 7%
faster sprint times after oral ingestion ([2]; listed as bicarbonate): ≤ 5%
faster sprint times after oral ingestion [2]: < 5%
